Test: SAD study: cardiac safety (ECG, telemetry, QTcF prolongation)

CCC(=O)C(C[C@H](C)N(C)C)(c1ccccc1)c1ccccc1 [d-methadone]
412 ms: QTcF Reading 3 (5 mg, subject 9003, 1 h)
421 ms: QTcF Reading 3 (5 mg, subject 9003, 2 h)
3 (50.0) n (%): Overall ECG result Abnormal, NCS (60 mg (N = 6), 12 h) | Overall ECG result Normal (60 mg (N = 6), 12 h)
5 n (%): Overall ECG result Normal (5 mg (N = 6), 1 h) | Overall ECG result Normal (5 mg (N = 6), 24 h) | Overall ECG result Normal (5 mg (N = 6), Visit 3) | Overall ECG result Normal (100 mg (N = 6), 0.5 h) | Overall ECG result Normal (100 mg (N = 6), 2 h) | Overall ECG result Normal (100 mg (N = 6), 5 h) | Overall ECG result Normal (100 mg (N = 6), 8 h) | Overall ECG result Normal (100 mg (N = 6), 24 h) | Overall ECG result Normal (100 mg (N = 6), 48 h)
432 ms: QTcF Average (5 mg, subject 9003, 2 h) | QTcF Average (5 mg, subject 9003, 5 h)
435 ms: QTcF Reading 3 (5 mg, subject 9003, 3 h) | QTcF Reading 2 (5 mg, subject 9003, 5 h)
4 (66.7) n (%): Overall ECG result Normal (20 mg (N = 6), 2 h) | Overall ECG result Normal (20 mg (N = 6), 3 h) | Overall ECG result Normal (20 mg (N = 6), 48 h) | Overall ECG result Normal (60 mg (N = 6), 1 h) | Overall ECG result Normal (60 mg (N = 6), 2 h) | Overall ECG result Normal (60 mg (N = 6), 8 h) | Overall ECG result Normal (60 mg (N = 6), 24 h) | Overall ECG result Normal (60 mg (N = 6), 48 h)
424 ms: QTcF Reading 1 (5 mg, subject 9003, 3 h)
2 (33.3) n (%): Overall ECG result Abnormal, NCS (20 mg (N = 6), 2 h) | Overall ECG result Abnormal, NCS (20 mg (N = 6), 3 h) | Overall ECG result Abnormal, NCS (20 mg (N = 6), 48 h) | Overall ECG result Abnormal, NCS (60 mg (N = 6), 1 h) | Overall ECG result Abnormal, NCS (60 mg (N = 6), 2 h) | Overall ECG result Abnormal, NCS (60 mg (N = 6), 8 h) | Overall ECG result Abnormal, NCS (60 mg (N = 6), 24 h) | Overall ECG result Abnormal, NCS (60 mg (N = 6), 48 h)
446 ms: QTcF Reading 2 (5 mg, subject 9002, 5 h)
4 n (%): Overall ECG result Normal (5 mg (N = 6), 3 h) | Overall ECG result Normal (5 mg (N = 6), 5 h)
1 (16.7) n (%): Overall ECG result Abnormal, NCS (20 mg (N = 6), 0.5 h) | Overall ECG result Abnormal, NCS (20 mg (N = 6), 1 h) | Overall ECG result Abnormal, NCS (20 mg (N = 6), 5 h) | Overall ECG result Abnormal, NCS (20 mg (N = 6), 8 h) | Overall ECG result Abnormal, NCS (20 mg (N = 6), 12 h) | Overall ECG result Abnormal, NCS (20 mg (N = 6), 24 h) | Overall ECG result Abnormal, NCS (20 mg (N = 6), 72 h) | Overall ECG result Abnormal, NCS (60 mg (N = 6), 0.5 h) | Overall ECG result Abnormal, NCS (60 mg (N = 6), 3 h) | Overall ECG result Abnormal, NCS (60 mg (N = 6), 5 h) | Overall ECG result Abnormal, NCS (60 mg (N = 6), 72 h) | Overall ECG result Abnormal, NCS (60 mg (N = 6), Visit 3)
1 n (%): Overall ECG result Abnormal, NCS (5 mg (N = 6), 1 h) | Overall ECG result Abnormal, NCS (5 mg (N = 6), 24 h) | Overall ECG result Abnormal, NCS (5 mg (N = 6), Visit 3) | Overall ECG result Abnormal, NCS (100 mg (N = 6), 0.5 h) | Overall ECG result Abnormal, NCS (100 mg (N = 6), 2 h) | Overall ECG result Abnormal, NCS (100 mg (N = 6), 5 h) | Overall ECG result Abnormal, NCS (100 mg (N = 6), 8 h) | Overall ECG result Abnormal, NCS (100 mg (N = 6), 24 h) | Overall ECG result Abnormal, NCS (100 mg (N = 6), 48 h)
434 ms: QTcF Reading 2 (5 mg, subject 9003, 2 h) | QTcF Reading 1 (5 mg, subject 9003, 5 h)
420 ms: QTcF Average (5 mg, subject 9003, 1 h) | QTcF Average (5 mg, subject 9009, 2 h)
5 (83.3) n (%): Overall ECG result Normal (20 mg (N = 6), 0.5 h) | Overall ECG result Normal (20 mg (N = 6), 1 h) | Overall ECG result Normal (20 mg (N = 6), 5 h) | Overall ECG result Normal (20 mg (N = 6), 8 h) | Overall ECG result Normal (20 mg (N = 6), 12 h) | Overall ECG result Normal (20 mg (N = 6), 24 h) | Overall ECG result Normal (20 mg (N = 6), 72 h) | Overall ECG result Normal (60 mg (N = 6), 0.5 h) | Overall ECG result Normal (60 mg (N = 6), 3 h) | Overall ECG result Normal (60 mg (N = 6), 5 h) | Overall ECG result Normal (60 mg (N = 6), 72 h) | Overall ECG result Normal (60 mg (N = 6), Visit 3)
411 ms: QTcF Reading 2 (5 mg, subject 9003, 1 h)
451 ms: QTcF Reading 1 (5 mg, subject 9002, 5 h)
2 n (%): Overall ECG result Abnormal, NCS (5 mg (N = 6), 3 h) | Overall ECG result Abnormal, NCS (5 mg (N = 6), 5 h)
3 n (%): Overall ECG result Abnormal, NCS (5 mg (N = 6), 2 h) | Overall ECG result Normal (5 mg (N = 6), 2 h) | Overall ECG result Abnormal, NCS (100 mg (N = 6), 3 h) | Overall ECG result Normal (100 mg (N = 6), 3 h)
445 ms: QTcF Average (5 mg, subject 9002, 5 h)
427 ms: QTcF Reading 2 (5 mg, subject 9003, 3 h)
6 (100) n (%): Overall ECG result Normal (20 mg (N = 6), Visit 3)
0 n (%): Overall ECG result Abnormal, NCS (5 mg (N = 6), 0.5 h) | Overall ECG result Abnormal, NCS (5 mg (N = 6), 8 h) | Overall ECG result Abnormal, NCS (5 mg (N = 6), 12 h) | Overall ECG result Abnormal, NCS (5 mg (N = 6), 48 h) | Overall ECG result Abnormal, NCS (5 mg (N = 6), 72 h) | Overall ECG result Abnormal, NCS (20 mg (N = 6), Visit 3) | Overall ECG result Abnormal, NCS (100 mg (N = 6), 1 h) | Overall ECG result Abnormal, NCS (100 mg (N = 6), 12 h) | Overall ECG result Abnormal, NCS (100 mg (N = 6), 72 h) | Overall ECG result Abnormal, NCS (100 mg (N = 6), Visit 3)
439 ms: QTcF Reading 3 (5 mg, subject 9002, 5 h)
429 ms: QTcF Average (5 mg, subject 9003, 3 h)
6 n (%): Overall ECG result Normal (5 mg (N = 6), 0.5 h) | Overall ECG result Normal (5 mg (N = 6), 8 h) | Overall ECG result Normal (5 mg (N = 6), 12 h) | Overall ECG result Normal (5 mg (N = 6), 48 h) | Overall ECG result Normal (5 mg (N = 6), 72 h) | Overall ECG result Normal (100 mg (N = 6), 1 h) | Overall ECG result Normal (100 mg (N = 6), 12 h) | Overall ECG result Normal (100 mg (N = 6), 72 h) | Overall ECG result Normal (100 mg (N = 6), Visit 3)
417 ms: QTcF Reading 3 (5 mg, subject 9009, 2 h)
437 ms: QTcF Reading 1 (5 mg, subject 9003, 1 h)
425 ms: QTcF Average (100 mg, subject 9056, 0.5 h)
440 ms: QTcF Reading 1 (5 mg, subject 9003, 2 h)
431 ms: QTcF Reading 2 (5 mg, subject 9009, 2 h)
413 ms: QTcF Reading 1 (5 mg, subject 9009, 2 h)
426 ms: QTcF Reading 3 (5 mg, subject 9003, 5 h)
